In brackets after ≈: the same amount, converted by molar mass. Each block holds one compound with its values, some of them ahead of it.
What was measured:
Assay in all cases: ≥ marks a high value that may be exact or a test limit, other limits are often not marked, values filed in µg/mL are converted to µM
[1] = system: Staphylococcus aureus BCRC 10780
[2] = system: Vibrio harveyi BCRC 13812
Vibrio alginolyticus = system: Vibrio alginolyticus
[3] = system: Staphylococcus sp. BCRC 10451
[4] = system: Streptococcus pneumoniae BCRC 10794
[5] = system: Micrococcus luteus BCRC 11034
[6] = system: Bacillus subtilis ATCC 9372
[7] = system: Bacillus anthracis Sterne 34F2
[8] = system: Burkholderia thailandensis
Acinetobacter sp. = system: Acinetobacter sp.
[9] = system: Staphylococcus aureus ATCC 9144
Escherichia coli = system: Escherichia coli
[10] = system: Bacillus subtilis ATCC 6633
[11] = system: Escherichia coli ATCC 11775
[12] = system: Pseudomonas aeruginosa ATCC 25668
Colletotrichum sp. = system: Colletotrichum sp.
Alternaria sp. = system: Alternaria sp.
[13] = system: Escherichia coli ATCC 35218
Aspergillus ochraceus = system: Aspergillus ochraceus
Fulvia fulva = system: Fulvia fulva
[14] = system: Staphylococcus aureus ATCC 25325
Fusarium oxysporum = system: Fusarium oxysporum
Aspergillus niger = system: Aspergillus niger
[15] = system: Pseudomonas aeruginosa ATCC 27853
[16] = system: Pseudomonas syringae pv. Valerianella
[17] = system: Pseudomonas syringae pv. phaseolicola
Micrococcus luteus = system: Micrococcus luteus
Escherichia coli 1106 = system: Escherichia coli 1106
Trichoderma viride = system: Trichoderma viride
[18] = system: Pseudomonas syringae pv. Maculicola
Botrytis cinerea = system: Botrytis cinerea
[19] = system: Clavibacter michiganensis subsp. michiganensis
[20] = system: Xanthomonas campestris pv. campestris
Fusarium haematococcum = system: Fusarium haematococcum
Neurospora crassa = system: Neurospora crassa
[21] = system: Xanthomonas vesicatoria B229RI
Staphylococcus aureus = system: Staphylococcus aureus
Escherichia coli D31 = system: Escherichia coli D31
Alternaria dauci = system: Alternaria dauci
[22] = system: Pseudomonas syringae pv. Pisi
[23] = system: Xanthomonas vesicatoria 687.3
Pseudomonas syringae = system: Pseudomonas syringae
Fusarium oxysporum L = system: Fusarium oxysporum L
Stemphylium sp. = system: Stemphylium sp.
Aerococcus viridans = system: Aerococcus viridans
Fusarium culmorum = system: Fusarium culmorum
Alternaria brassicicola = system: Alternaria brassicicola
Salmonella typhimurium = system: Salmonella typhimurium
Bacillus subtilis = system: Bacillus subtilis
Aspergillus fumigatus = system: Aspergillus fumigatus
Fusarium oxysporum M = system: Fusarium oxysporum M
[24] = system: Pseudomonas syringae pv. syringae
Escherichia coli D22 = system: Escherichia coli D22

Compound: CC[C@H](C)[C@H](NC(=O)[C@H](Cc1ccccc1)NC(C)=O)C(=O)N[C@@H](Cc1ccccc1)C(=O)N[C@@H](Cc1cnc[nH]1)C(=O)N[C@H](C(=O)N[C@H](C(=O)N[C@@H](CCCCN)C(=O)NCC(=O)N[C@@H](CC(C)C)C(=O)N[C@@H](Cc1ccccc1)C(=O)N[C@@H](Cc1cnc[nH]1)C(=O)N[C@@H](C)C(N)=O)[C@@H](C)CC)[C@@H](C)CC [FIFHIIKGLFHA]
MIC [1]: 4.33 µM (≈ 6.43 µg/mL)
MIC [2]: 4.33 µM (≈ 6.43 µg/mL)
MIC (Vibrio alginolyticus): 17.3 µM (≈ 25.7 µg/mL)
MIC [3]: 8.66 µM (≈ 12.9 µg/mL)

Compound: CC[C@H](C)[C@H](NC(=O)[C@H](Cc1cnc[nH]1)NC(=O)[C@H](CCCCN)NC(=O)[C@@H](NC(=O)[C@@H](NC(=O)[C@H](CC(=O)O)NC(=O)[C@H](Cc1ccccc1)NC(=O)[C@H](Cc1c[nH]c2ccccc12)NC(=O)CN)C(C)C)C(C)C)C(=O)N[C@@H](C)C(=O)N[C@@H](CO)C(=O)N[C@@H](C)C(=O)N[C@H](C(=O)O)C(C)C [GWFDVVKHIASAV]
MIC [6]: ≥ 100 µM
MIC [7]: ≥ 100 µM
MIC [8]: ≥ 50 µM

Compound: CC[C@H](C)[C@@H]1NC(=O)[C@H](CCCCN)NC(=O)[C@H]([C@@H](C)CC)NC(=O)[C@H](CCC(N)=O)NC(=O)[C@H](CCCN=C(N)N)NC(=O)[C@@H](NC(=O)[C@@H](NC(=O)[C@H](CO)NC(=O)[C@@H](N)CCCN=C(N)N)C(C)C)CSSC[C@@H](C(=O)N[C@H](C(=O)N[C@@H](CC(N)=O)C(=O)N[C@@H](CCCN=C(N)N)C(=O)N2CCC[C@H]2C(=O)N[C@@H](Cc2ccc(O)cc2)C(=O)O)[C@@H](C)O)NC(=O)[C@H](CCCCN)NC(=O)[C@H](Cc2ccc(O)cc2)NC(=O)[C@H](Cc2ccc(O)cc2)NC(=O)[C@@H]2CSSC[C@H](NC1=O)C(=O)N[C@@H](CCCN=C(N)N)C(=O)N[C@@H](CCCN=C(N)N)C(=O)N[C@@H](CCCN=C(N)N)C(=O)NCC(=O)NCC(=O)N2 [RSVCRQIKICRRRGGCYYKCTNRPY]
MIC [16]: 18.2 µM (≈ 55.9 µg/mL)
MIC [17]: 2.12 µM (≈ 6.53 µg/mL)
MIC (Micrococcus luteus): 0.949 µM (≈ 2.92 µg/mL)
MIC (Escherichia coli 1106): 9.49 µM (≈ 29.2 µg/mL)
MIC (Trichoderma viride): 8.49 µM (≈ 26.1 µg/mL)
MIC [18]: 4.24 µM (≈ 13.1 µg/mL)
MIC (Botrytis cinerea): 8.49 µM (≈ 26.1 µg/mL)
MIC [19]: 9.49 µM (≈ 29.2 µg/mL)
MIC [20]: 4.24 µM (≈ 13.1 µg/mL)
MIC (Fusarium haematococcum): 8.49 µM (≈ 26.1 µg/mL)
MIC (Neurospora crassa): 8.49 µM (≈ 26.1 µg/mL)
MIC (Fusarium oxysporum): 8.49 µM (≈ 26.1 µg/mL)
MIC [21]: 2.12 µM (≈ 6.53 µg/mL)
MIC (Staphylococcus aureus): 21.2 µM (≈ 65.3 µg/mL)
MIC (Escherichia coli D31): 4.24 µM (≈ 13.1 µg/mL)
MIC (Alternaria dauci): 11.3 µM (≈ 34.8 µg/mL)
MIC [22]: 9.49 µM (≈ 29.2 µg/mL)
MIC [23]: 2.12 µM (≈ 6.53 µg/mL)
MIC (Pseudomonas syringae): 2.12 µM (≈ 6.53 µg/mL)
MIC (Fusarium oxysporum L): 2.83 µM (≈ 8.7 µg/mL)
MIC (Stemphylium sp.): 5.66 µM (≈ 17.4 µg/mL)
MIC (Aerococcus viridans): 0.424 µM (≈ 1.31 µg/mL)
MIC (Fusarium culmorum): 4.24 µM (≈ 13.1 µg/mL)
MIC (Alternaria brassicicola): 4.24 µM (≈ 13.1 µg/mL)
MIC (Salmonella typhimurium): 4.24 µM (≈ 13.1 µg/mL)
MIC (Bacillus subtilis): 2.12 µM (≈ 6.53 µg/mL)
MIC (Aspergillus fumigatus): ≥ 35.4 µM
MIC (Fusarium oxysporum M): 2.83 µM (≈ 8.7 µg/mL)
MIC [24]: 18.2 µM (≈ 55.9 µg/mL)
MIC (Escherichia coli D22): 30 µM (≈ 92.3 µg/mL)

Results, then the compound that gave them:

MIC [4]: ≥ 44.2 µM
MIC [1]: ≥ 44.2 µM
MIC [5]: ≥ 44.2 µM
MIC [3]: 5.52 µM (≈ 12.7 µg/mL)
Compound: CC[C@H](C)[C@H](NC(=O)[C@H](CCCCN)NC(=O)[C@@H]1CCCN1C(=O)[C@@H](NC(=O)[C@H](CC(C)C)NC(=O)[C@H](C)NC(=O)[C@H](Cc1ccccc1)NC(=O)[C@H](Cc1ccccc1)NC(=O)CNC(C)=O)[C@@H](C)CC)C(=O)N[C@H](C(=O)N[C@@H](CO)C(=O)N[C@@H](CO)C(=O)N1CCC[C@H]1C(=O)N[C@@H](CC(C)C)C(=O)N[C@@H](Cc1ccccc1)C(=O)N[C@@H](CCCCN)C(=O)N[C@H](C(=O)N[C@@H](CC(C)C)C(=O)N[C@@H](CC(C)C)C(=O)N[C@@H](CO)C(=O)N[C@@H](C)C(N)=O)[C@@H](C)O)[C@@H](C)CC [GFFALIPKIISSPLFKTLLSA]

MIC (Acinetobacter sp.): 21.6 µM (≈ 32 µg/mL)
MIC [9]: 2.7 µM (≈ 4 µg/mL)
MIC (Escherichia coli): 2.7 µM (≈ 4 µg/mL)
MIC [10]: 5.41 µM (≈ 7.99 µg/mL)
MIC [11]: 0.676 µM (≈ 0.999 µg/mL)
MIC [12]: 5.41 µM (≈ 7.99 µg/mL)
Compound: CC[C@H](C)[C@H](N)C(=O)N[C@@H](CCCCN)C(=O)N[C@@H](Cc1c[nH]c2ccccc12)C(=O)N[C@@H](C)C(=O)NCC(=O)N[C@@H](CCCCN)C(=O)N[C@@H](CC(C)C)C(=O)N[C@@H](Cc1ccccc1)C(=O)N[C@@H](CCCCN)C(=O)N[C@@H](CC(C)C)C(=O)N[C@@H](Cc1ccccc1)C(=O)N[C@@H](CCCCN)C(N)=O [IKWAGKLFKLFK]

MIC (Colletotrichum sp.): 2.33 µM (≈ 3.12 µg/mL)
MIC (Alternaria sp.): 4.67 µM (≈ 6.25 µg/mL)
MIC [13]: 4 µM (≈ 5.35 µg/mL)
MIC (Aspergillus ochraceus): ≥ 37.4 µM
MIC (Fulvia fulva): 9.35 µM (≈ 12.5 µg/mL)
MIC [14]: 4.6 µM (≈ 6.15 µg/mL)
MIC (Fusarium oxysporum): 2.33 µM (≈ 3.12 µg/mL)
MIC (Aspergillus niger): 4.67 µM (≈ 6.25 µg/mL)
MIC [15]: 9.1 µM (≈ 12.2 µg/mL)
Compound: CC(C)C[C@H](NC(=O)[C@H](Cc1ccc(O)cc1)NC(=O)[C@H](Cc1cnc[nH]1)NC(=O)[C@@H](NC(=O)[C@H](CC(C)C)NC(=O)[C@H](C)NC(=O)[C@H](C)NC(=O)[C@H](CCCCN)NC(=O)CNC(=O)[C@@H](NC(=O)[C@H](Cc1cnc[nH]1)NC(=O)[C@@H](N)CCCCN)C(C)C)[C@@H](C)O)C(=O)O [KHVGKAALTHYL]
